The source of these data is US7312322B1, “Genetic sequences encoding steroid and juvenile hormone receptor polypeptides and insecticidal modalities therefor” (priority 1998, dated 2007).

“And” between values parts separate entries of the source, which are not always exact repeats. Equal values may be shown once.

The target of experiment [1] is T1, EcR polypeptide subunit of the D. melanogaster ecdysone receptor (Drosophila melanogaster, UniProt P34021).
T1 construct: expressed in transfected cells; host or cells: CHO cells
T1 sequence (P34021 1-878): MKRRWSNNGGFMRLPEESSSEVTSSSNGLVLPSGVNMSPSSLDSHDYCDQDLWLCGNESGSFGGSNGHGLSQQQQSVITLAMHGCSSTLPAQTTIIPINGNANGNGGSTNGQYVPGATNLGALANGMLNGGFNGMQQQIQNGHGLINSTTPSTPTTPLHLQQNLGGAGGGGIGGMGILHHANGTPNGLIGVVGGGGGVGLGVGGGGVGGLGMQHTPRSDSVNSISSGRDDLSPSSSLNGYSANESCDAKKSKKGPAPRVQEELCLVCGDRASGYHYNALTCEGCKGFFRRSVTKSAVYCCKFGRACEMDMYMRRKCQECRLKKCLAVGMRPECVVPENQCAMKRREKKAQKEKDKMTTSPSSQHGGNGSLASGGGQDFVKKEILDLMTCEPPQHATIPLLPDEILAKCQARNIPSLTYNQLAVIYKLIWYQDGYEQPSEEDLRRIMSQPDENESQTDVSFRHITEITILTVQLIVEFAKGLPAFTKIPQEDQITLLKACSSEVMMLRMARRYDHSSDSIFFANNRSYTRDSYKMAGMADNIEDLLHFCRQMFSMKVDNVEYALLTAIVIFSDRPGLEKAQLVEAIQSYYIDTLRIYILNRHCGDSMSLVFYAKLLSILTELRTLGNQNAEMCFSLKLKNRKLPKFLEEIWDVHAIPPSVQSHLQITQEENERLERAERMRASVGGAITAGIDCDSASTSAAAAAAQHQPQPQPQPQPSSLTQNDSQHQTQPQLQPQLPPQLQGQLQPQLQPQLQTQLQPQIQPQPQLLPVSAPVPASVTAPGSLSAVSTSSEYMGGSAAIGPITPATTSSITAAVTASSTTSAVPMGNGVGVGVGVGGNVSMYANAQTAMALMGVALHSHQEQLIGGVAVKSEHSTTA
Briefly: CHO cell co-transfection CAT reporter assay, pSV40-EcR with p(EcRE)7-CAT. It counts as cell-based. The note with it: for Fold-induction of expression: 30° C., PNA 20 μM, CHO cells. The protocol:
Chinese hamster ovary (CHO) cells were maintained in 50% (v/v) Dubbecco's modified Eagle's medium (DMEM) and 50% (v/v) Hamm F12 nutrient mixture (GIBCO) supplemented with 10% (v/v) foetal bovine serum. Transfection was carried out by the DNA-calcium phosphate co-precipitation method (Ausubel et al, 1992). One day before transfection with the plasmids described in Examples 1 and/or 2, or other expression plasmids, CHO cells were plated out at 5-8×10^5 cells per 6 cm diameter culture dish in the above DMEM/F12 medium. Three hours before the addition of the DNA-calcium phosphate co-precipitate, the cells were washed with phosphate buffered saline (PBS; Sambrook et al., 1989) and cultured in fresh DMEM plus 10% (v/v) foetal bovine serum. The cells were incubated in the presence of the co-precipitate for eighteen hours before excess DNA was removed by washing with PBS. The cells were then cultured for another day in DMEM/F12 supplemented with 10% (v/v) foetal bovine serum with or without added ponasterone A (PNA), before harvesting. Cells were washed with PBS, harvested by mechanical scraping in 0.25 M Tris-HCl (pH 7.8), and disrupted by three freeze-thaw cycles.
All transfections included, in addition to expression and reporter plasmids, a β-galactosidase-expressing plasmid designated pPgK-LacZ (McBurney et al, 1991), which served as an internal control for the efficiency of transfection, and pUC18 DNA in an amount sufficient to produce 10 μg total DNA per culture dish.
The chloramphenicol acetyltransferase (CAT) and β-galactosidase activities encoded by the reporter genes present in the reporter plasmids were assayed as described in Sambrook et al, (1989).
To determine whether the D. melanogaster ecdysone receptor polypeptide is stable at physiological temperatures above about 30° C., CHO cells were transfected as described in Example 3, with the plasmid pSV40-EcR and the reporter plasmid p(EcRE)7-CAT in the presence of PNA, at 30° C. and 37° C.
Briefly, CHO cells were plated out at 37° C. sixteen to twenty hours before transfection. After washing away the DNA, the cells were cultured for two hours in fresh medium with or without hormone and the dishes divided into duplicate sets. One set was cultured for another day at 37° C. before harvesting for CAT and β-galactosidase assays. The other set was cultured for three days at 30° C. before assaying enzyme activities. Results indicated a reduction in the fold-induction of gene expression regulated by the D. melanogaster ecdysone receptor polypeptide at 37° C., compared to the fold-induction at 30° C., as shown in Table 1.
In general terms: A reporter such as luciferase makes a cellular process visible.

The target of experiment [2] is T2, linker and ligand-binding regions of the L. cuprina EcR polypeptide and partner protein (USP polypeptide) (Lucilia cuprina, UniProt O18531).
T2 construct: made in house; host or cells: recombinant baculovirus in insect Sf9 and Sf21 cells (extracts)
T2 sequence (O18531 366-757): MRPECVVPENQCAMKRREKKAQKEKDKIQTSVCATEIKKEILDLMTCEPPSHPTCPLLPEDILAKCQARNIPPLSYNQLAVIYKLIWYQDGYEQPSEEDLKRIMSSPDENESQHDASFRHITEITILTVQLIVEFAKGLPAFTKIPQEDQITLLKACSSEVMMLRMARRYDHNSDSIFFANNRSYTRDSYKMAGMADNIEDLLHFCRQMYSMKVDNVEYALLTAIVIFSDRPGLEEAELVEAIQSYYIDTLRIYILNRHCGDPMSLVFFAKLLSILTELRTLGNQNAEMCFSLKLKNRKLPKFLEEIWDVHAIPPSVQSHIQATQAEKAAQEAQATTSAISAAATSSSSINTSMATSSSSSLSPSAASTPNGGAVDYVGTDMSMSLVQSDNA
Nature of the experiment: [3H]ponasterone A binding assay in Sf9 and Sf21 cells infected by recombinant baculovirus (modified method of Yund et al). The settings on record: compared to the ecdysone holoreceptor in L. cuprina embryos; no specific binding with control virus (FIG. 3).
From the text: Control cells contained baculovirus expressing β-galactosidase and CAT only.
The segment of pLcEcR.USP.DUAL which encodes the tagged linker and ligand-binding regions of the EcR polypeptide and partner protein (USP polypeptide) sequences, placed operably under the control of polyhedrin and p10 promoters, respectively, was recombined into a baculovirus genome, by employing the Tn7 transposition system (Luckow et al, (1993). The polypeptide products were then co-expressed in insect Sf21 and Sf9 cells, where they associated into a functional complex.

`CC(C)CC[C@@H](O)[C@](C)(O)[C@H]1CC[C@@]2(O)C3=CC(=O)[C@@H]4C[C@@H](O)[C@@H](O)C[C@]4(C)[C@H]3CC[C@]12C` [PNA, ponasterone A]: the Fold-induction of expression in experiment [1] (pSV40-EcR 0.1 μg/dish) was 39X and 25X; in experiment [1] (pSV40-EcR 0.5 μg/dish), 26X and 33X; in experiment [1] (pSV40-EcR 2.5 μg/dish), 35X and 54X. Besides, the “induction of CAT activity” value in experiment [1] (CHO cells co-transfected with p(EcRE)7-CAT and pSV40-EcR, in the presence of PNA) is 50 units of activity. Besides, the “binding of labelled ligand in cells infected by the recombinant baculovirus” value in experiment [2] is listed as “highly-significant increase in the binding”.
